# Reference: US7622475B2, “EP2 agonists” (Pfizer Inc, priority 2006, dated 2009)
# Key:
# [1] = test system: ocular hypertensive non-human primates; assay: IOP change after topical application in ocular hypertensive non-human primates; assay type: in vivo; settings: for change in vivo at 0.1 %: Primates, read-out: ΔΔEmax (%); for ΔΔEmax (mm Hg): dosed hypertensive eye vs vehicle
# Method: Tables 2 and 3 describe the intraocular pressure (IOP) changes that were seen following topical application of EP2 agonists in ocular hypertensive non-human primates. Typically, compounds in suitable formulations were dosed topically and IOP was measured using tonometry. Changes in IOP between vehicle treatment followed by treatment with EP2 compounds were assessed over time in the dosed hypertensive eye. ΔΔ Emax reflects the difference in IOP from EP2 compound-treated eye over that seen for vehicle-treated eye at the timepoint wherein maximum IOP reduction for compound was seen. The percent ΔΔ Emax was the percentage change in IOP reduction conferred by compound over that for vehicle (set at 100%). Tmax represents the time point at which maximum IOP reduction of compound was observed. […] NS represents not significant. Table 2 compares acids of EP2 compound while Table 3 compares IOP response seen with esters of certain acids. Esters provide better corneal penetration and improved drug exposure in the anterior chamber compared to acids and are therefore dosed at ⅕th the dose for acids […].
# [2] = Solid form by powder X-ray diffraction; assay type: physicochemical; settings: FIG. 1
# Method: During analysis, the samples were analyzed from angles of 4 to 40 degrees (θ-2θ) using a scan time of 60 seconds and a scan spot size of 0.5 mm.
# The X-Ray diffraction peaks, characterized by peak positions and intensity assignments, have been extracted from the X-ray powder diffractogram of Example 1 and comparative compound 12. One of skill in the art will appreciate that the peak positions (2θ) will show some inter-apparatus variability, typically as much as 0.1 degrees. Accordingly, where peak positions (2θ) are reported, one of skill in the art will recognize that such numbers are intended to encompass such inter-apparatus variability.
# glaucomatous dogs = assay: IOP change after topical instillation in glaucomatous dogs; assay type: in vivo; settings: single 50 μl drop, @ 6 h, drawing 64 […] ([…]), drawing 65 0.1 mg/ml (0.01%)
# Method: Typically, compounds in suitable formulations were dosed topically and IOP was measured using tonometry. A single 50 μl drop containing either vehicle or drug was instilled in each eye of glaucomatous dogs and IOP was measured at 1, 2, 4, and 6 hours post dose. A baseline IOP measurement was taken prior to topical instillation of vehicle or drug. Changes in IOP between vehicle treatment followed by treatment with EP2 compounds were assessed over time in the glaucomatous dogs. ΔΔ Emax reflects the difference in IOP±standard error from EP2 compound-treated eye over that seen for vehicle-treated eye at the time point wherein maximum IOP reduction for compound was seen. The percent ΔΔ Emax was the percentage change in IOP reduction conferred by compound over that for vehicle (set at 100%).
# EP2 = EP2 (Homo sapiens, UniProt P43116); assay: EP2 cAMP EC50 (Table 1); assay type: cell-based
# [3] = biological target: T1, prostaglandin E2 type 2 (EP2) receptors (Homo sapiens, UniProt P43116); assay: Assay for binding to prostaglandin E2 receptors (3H-prostaglandin E2 displacement, membranes of transfected cells); settings: displacement of 3H-prostaglandin E2
# T1 construct: expressed in transfected cells
# Method: All operations are performed at 4° C. […] These are lysed by sonification with a Branson Sonifier (Model #250, Branson Ultrasonics Corporation, Danbury, Conn.) in 2 fifteen second bursts. Unlysed cells and debris are removed by centrifugation at 100×g for 10 min. Membranes are then harvested by centrifugation at 45,000×g for 30 minutes. Pelleted membranes are resuspended to 3-10 mg protein per ml, protein concentration being determined according to the method of Bradford [Bradford, M., Anal. Biochem., 72, 248 (1976)]. Resuspended membranes are then stored frozen at −80° C. until use.
# Frozen membranes as prepared are thawed and diluted to 1 mg protein per ml in Buffer A. One volume of membrane preparation is combined with 0.05 volume test compound or buffer and one volume of 3 nM 3H-prostaglandin E2 (#TRK 431, Amersham, Arlington Heights, Ill.) in Buffer A. The mixture (205 μL total volume) is incubated for 1 hour at 25° C. The membranes are then recovered by filtration through type GF/C glass fiber filters (#1 205401, Wallac, Gaithersburg, Md.) using a Tomtec harvester (Model Mach II/96, Tomtec, Orange, Conn.). The membranes with bound 3H-prostaglandin E2 are trapped by the filter, the buffer and unbound 3H-prostaglandin E2 pass through the filter into waste. Each sample is then washed 3 times with 3 ml of [50 mM Tris-HCl (pH 7.4), 10 mM MgCl2, 1 mM EDTA]. The filters are then dried by heating in a microwave oven. To determine the amount of 3H-prostaglandin bound to the membranes, the dried filters are placed into plastic bags with scintillation fluid and counted in a LKB 1205 Betaplate reader (Wallac, Gaithersburg, Md.). IC50s are determined from the concentration of test compound required to displace 50% of the specifically bound 3H-prostaglandin E2.
# [4] = topical, acid EP2 agonists, Conc 0.1 %, topical, vs vehicle (set at 100%)
# [5] = acid EP2 agonists, Conc 0.1 %, topical
# [6] = acid EP2 agonists, Conc 0.1 %, time point of maximum IOP reduction
# [7] = acid EP2 agonists, Conc 0.1 %, topical, vs vehicle (set at 100%)
# [8] = isopropylesters, OHT primates, time point of maximum IOP reduction
# T1 sequence (P43116 whole entry): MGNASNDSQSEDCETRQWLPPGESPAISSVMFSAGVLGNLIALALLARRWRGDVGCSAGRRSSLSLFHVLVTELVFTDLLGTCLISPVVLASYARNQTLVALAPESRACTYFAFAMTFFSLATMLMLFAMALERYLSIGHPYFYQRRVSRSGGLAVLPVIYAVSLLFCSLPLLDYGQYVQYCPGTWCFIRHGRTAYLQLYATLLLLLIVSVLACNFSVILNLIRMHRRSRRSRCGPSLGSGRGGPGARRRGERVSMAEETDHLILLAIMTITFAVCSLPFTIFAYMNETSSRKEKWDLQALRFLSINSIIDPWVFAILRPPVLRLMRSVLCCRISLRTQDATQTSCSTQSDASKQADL
# Chain of EP2 (P43116 whole entry): as above
Compound,EC50 (EP2),IC50 [3],further results
CS(=O)(=O)N(CCCOc1cc(Cl)cc(Cl)c1)CCCc1ccc(C(=O)O)s1,,,"change in vivo at 0.1 % [1, 4]: -11%; ΔΔEmax (mm Hg) [1, 5]: −4.4 mm Hg; Tmax [1, 6]: 2 h"
O=C(O)CCCCCCC1C(=O)CC[C@@H]1CCc1cccc(C(F)(F)F)c1 (some centres unmarked),,,"change in vivo at 0.1 % [1, 4]: -9%; ΔΔEmax (mm Hg) [1, 5]: −3.7 mm Hg; Tmax [1, 6]: 6 h"
O=C(O)CCc1cccc(CN(Cc2ccc(-c3cccnc3)cc2)S(=O)(=O)c2cccnc2)c1,,,"ΔΔEmax (mm Hg) [1, 5]: ns; ΔΔEmax (%) [1, 7]: ns"
Cn1cnc(S(=O)(=O)N(Cc2ccc(-c3nccs3)cc2)Cc2cccc(OCC(=O)O)c2)c1,,,"ΔΔEmax (mm Hg) [1, 5]: ns; ΔΔEmax (%) [1, 7]: ns"
O=C(O)CCc1cccc(CN(Cc2ccc(-c3cncnc3)cc2)S(=O)(=O)c2ccccn2)c1,,,"ΔΔEmax (mm Hg) [1, 5]: ns; ΔΔEmax (%) [1, 7]: ns"
CS(=O)(=O)N(CCCc1nc(C(=O)O)cs1)CCOc1cc(Cl)cc(Cl)c1,,,"change in vivo at 0.1 % [1, 4]: -8%; ΔΔEmax (mm Hg) [1, 5]: −4.3 mm Hg; Tmax [1, 6]: 2 h"
O=C(O)CCc1cccc(CN(Cc2ccc(-c3cccnc3)cc2)S(=O)(=O)c2ccccc2)c1,,,"change in vivo at 0.1 % [1, 4]: -10%; ΔΔEmax (mm Hg) [1, 5]: −3.0 mm Hg; Tmax [1, 6]: 4 h"
O=C(O)COc1cccc(CN(Cc2ccc(-c3ncccn3)cc2)S(=O)(=O)c2ccccn2)c1,,,"ΔΔEmax (mm Hg) [1, 5]: ns; ΔΔEmax (%) [1, 7]: ns"
CC(C)OC(=O)c1csc(CCCN(CCOc2cc(Cl)cc(Cl)c2)S(C)(=O)=O)c1,,,"ΔΔEmax (mmHg) ([1]; isopropylesters, OHT primates, both eyes): −8 (both eyes) mmHg; Tmax [1, 8]: 4 to 6 h"
"CC(C)OC(=O)COc1cccc(CN(Cc2ccc(-n3cccn3)cc2)S(=O)(=O)c2cccnc2)c1 [Example 1, isopropyl [3-({[4-(1H-pyrazol-1-yl)benzyl](pyridin-3-yl-sulfonyl)amino}methyl)phenoxy]acetate]",1.48 nM,10 nM,solid form [2]: crystalline form; ΔΔEmax (%) (glaucomatous dogs): −33% @ 6 h; ΔΔEmax (mmHg) (glaucomatous dogs): −7.0 1.2 mmHg @ 6 h
CC(C)OC(=O)c1ccc(CCCN(CCCOc2cc(Cl)cc(Cl)c2)S(C)(=O)=O)s1 [Example 2],8.15 nM,3.22 nM,
COC(=O)COc1cccc(CN(Cc2ccc(-n3cccn3)cc2)S(=O)(=O)c2cccnc2)c1 [Example 3],1.48 nM,10 nM,
CC(C)(C)OC(=O)CCc1cccc(CN(Cc2ccc(-c3cccnc3)cc2)S(=O)(=O)c2ccccc2)c1 [Example 4],5.35 nM,< 12.4 nM,
CC(C)OC(=O)c1ccc(CCCN(CCOc2cc(Cl)cc(Cl)c2)S(C)(=O)=O)s1 [Example 5],4.8 nM,4.42 nM,
O=C(O)COc1cccc(CN(Cc2ccc(-n3cccn3)cc2)S(=O)(=O)c2cccnc2)c1 [drawing 52],,,"ΔΔEmax (mm Hg) [1, 5]: −7.0 mm Hg; ΔΔEmax (%) [1, 7]: −21%; Tmax [1, 6]: 4 h"
O=C(O)COc1cccc(CN(Cc2ccc(-n3cccn3)cc2)S(=O)(=O)c2cccnc2)c1 [drawing 60],,,"ΔΔEmax (mm Hg) [1, 5]: −2.6 mm Hg; ΔΔEmax (%) [1, 7]: −6%; Tmax [1, 6]: 4 h"
CC(C)OC(=O)c1ccc(CCCN(CCCOc2cc(Cl)cc(Cl)c2)S(C)(=O)=O)s1 [drawing 62],,,"ΔΔEmax (%) ([1]; isopropylesters, OHT primates, OHT eye): ns; ΔΔEmax (mmHg) ([1]; isopropylesters, OHT primates, OHT eye, 0.1 mg/ml topical): ns; Tmax (h) [1, 8]: ns"

# Further lines, with some results ahead:
EC50 (EP2),IC50 [3],Compound,further results
7 nM,6.6 nM,CC(C)OC(=O)CCCCCCN(CCCc1cc(Cl)cc(Cl)c1)S(C)(=O)=O [Example 6],
18 nM,5.3 nM,CC(C)OC(=O)c1csc(CCCN(CCOc2cc(Cl)cc(Cl)c2)S(C)(=O)=O)n1 [Example 7],
5.35 nM,< 12.4 nM,CC(C)OC(=O)CCc1cccc(CN(Cc2ccc(-c3cccnc3)cc2)S(=O)(=O)c2ccccc2)c1 [Example 8],
10 nM,1.48 nM,CCOC(=O)COc1cccc(CN(Cc2ccc(-n3cccn3)cc2)S(=O)(=O)c2cccnc2)c1 [Example 9],
8.15 nM,3.22 nM,CC(C)(C)OC(=O)c1ccc(CCCN(CCCOc2cc(Cl)cc(Cl)c2)S(C)(=O)=O)s1 [Example 10],
12 nM,26 nM,CC(C)OC(=O)COc1cccc(CN(Cc2ccc(-c3nccs3)cc2)S(=O)(=O)c2cn(C)cn2)c1 [Example 12],
3.1 nM,< 10 nM,CC(C)OC(=O)CCc1cccc(CN(Cc2ccc(-c3ncccn3)cc2)S(=O)(=O)c2cccnc2)c1 [Example 13],
3.1 nM,< 10 nM,CC(C)OC(=O)CCc1cccc(CN(Cc2ccc(-c3ncccn3)cc2)S(=O)(=O)c2ccccc2)c1 [Example 14],
4.9 nM,< 10 nM,CC(C)OC(=O)CCc1cccc(CN(Cc2ccc(-c3ncccn3)cc2)S(=O)(=O)c2ccccn2)c1 [Example 15],
0.85 nM,3 nM,CC(C)OC(=O)COc1cccc(CN(Cc2ccc(-c3nccs3)cc2)S(=O)(=O)c2cccnc2)c1 [Example 16],
7.8 nM,3.9 nM,CC(C)OC(=O)Cc1cccc(CN(Cc2ccc(-c3ncccn3)cc2)S(=O)(=O)c2cccnc2)c1 [Example 17],
12 nM,< 10 nM,CC(C)OC(=O)COc1cccc(CN(Cc2ccc(-n3cccn3)cc2)S(=O)(=O)c2ccccn2)c1 [Example 18],
4.1 nM,7.6 nM,CC(C)OC(=O)COc1cccc(CN(Cc2ccc(-c3ccccn3)cc2)S(=O)(=O)c2cccnc2)c1 [Example 19],
51.5 nM,< 10 nM,CC(C)OC(=O)CCc1cccc(CN(Cc2ccc(-n3cccn3)cc2)S(=O)(=O)c2cccnc2)c1 [Example 20],
2.2 nM,2.2 nM,CC(C)OC(=O)Cc1cccc(CN(Cc2ccc(-c3nccs3)cc2)S(=O)(=O)c2cccnc2)c1 [Example 21],
3.3 nM,15.7 nM,CC(C)OC(=O)CCc1cccc(CN(Cc2ccc(-c3ncccn3)cc2)S(=O)(=O)c2ccc(Cl)cc2)c1 [Example 22],
5.4 nM,22 nM,CC(C)OC(=O)COc1cccc(CN(Cc2ccc(-c3ncccn3)cc2)S(=O)(=O)c2cccnc2)c1 [Example 23],
54 nM,6.64 nM,CC(C)OC(=O)c1csc(CCCN(CCCc2cccc(Cl)c2)S(C)(=O)=O)n1 [Example 24],
5.9 nM,< 10 nM,CC(C)OC(=O)CCc1cccc(CN(Cc2ccc(-n3cccn3)cc2)S(=O)(=O)c2nccs2)c1 [Example 25],
6.4 nM,< 10 nM,CC(C)OC(=O)CCc1cccc(CN(Cc2ccc(-c3ncccn3)cc2)S(=O)(=O)c2nccs2)c1 [Example 26],
1.48 nM,10 nM,"CC(C)(C)OC(=O)COc1cccc(CN(Cc2ccc(-n3cccn3)cc2)S(=O)(=O)c2cccnc2)c1 [Example C12, t-butyl [3-({[4-(1H-pyrazol-1-yl)benzyl](pyridin-3-yl-sulfonyl)amino}methyl)phenoxy]acetate, reference compound]",solid form [2]: gummy material; ΔΔEmax (%) (glaucomatous dogs): −34% @ 6 h; ΔΔEmax (mmHg) (glaucomatous dogs): −8.0 1.7 mmHg @ 6 h
